Laboratory results: ChEMBL document CHEMBL1149081, “Identification and structure-activity relationships of ortho-biphenyl carboxamides as potent Smoothened antagonists inhibiting the Hedgehog signaling pathway” (Bioorg Med Chem Lett, 2009)
pIC50: −log10 of the molar value.

Assays:
[1] = Inhibition of Hedgehog signaling pathway in mouse TM3 cells bearing pTA-8xGli-Luc reporter construct assessed as transcriptional modulation of Gli after 48 hrs by luciferase assay; conditions: TM3, 48 h
Protein smoothened [2] = molecular target: Protein smoothened (Homo sapiens, UniProt Q99835); experiment: Antagonist activity at human Smo receptor expressed in CHO cells by [3H]Hh-Ag binding assay; type: cell-based
Sequence of Protein smoothened (Homo sapiens, UniProt Q99835) (Q99835 whole entry): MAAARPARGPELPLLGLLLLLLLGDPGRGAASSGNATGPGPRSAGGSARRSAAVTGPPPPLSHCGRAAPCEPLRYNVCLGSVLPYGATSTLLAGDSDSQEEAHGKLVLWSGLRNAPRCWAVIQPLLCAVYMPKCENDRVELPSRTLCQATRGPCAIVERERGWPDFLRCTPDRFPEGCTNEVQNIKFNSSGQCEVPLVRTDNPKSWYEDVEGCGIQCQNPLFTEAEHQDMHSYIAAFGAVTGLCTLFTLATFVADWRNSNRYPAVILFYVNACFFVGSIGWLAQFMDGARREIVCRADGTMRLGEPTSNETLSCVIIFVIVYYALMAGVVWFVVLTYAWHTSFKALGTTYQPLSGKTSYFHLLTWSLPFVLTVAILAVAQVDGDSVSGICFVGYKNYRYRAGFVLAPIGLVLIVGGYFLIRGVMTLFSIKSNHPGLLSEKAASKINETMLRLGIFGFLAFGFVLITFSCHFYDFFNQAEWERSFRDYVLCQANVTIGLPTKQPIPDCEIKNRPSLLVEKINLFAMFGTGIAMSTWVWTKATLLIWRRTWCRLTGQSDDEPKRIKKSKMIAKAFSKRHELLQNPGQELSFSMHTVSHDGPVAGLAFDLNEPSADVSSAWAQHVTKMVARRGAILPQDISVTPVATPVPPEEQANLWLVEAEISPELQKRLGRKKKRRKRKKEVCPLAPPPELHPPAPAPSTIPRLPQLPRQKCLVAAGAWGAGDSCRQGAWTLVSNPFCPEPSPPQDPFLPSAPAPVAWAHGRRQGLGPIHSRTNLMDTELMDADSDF

Protein smoothened [3] = molecular target: Protein smoothened (Mus musculus, UniProt P56726); experiment: Antagonist activity at mouse Smo receptor expressed in CHO cells by [3H]Hh-Ag binding assay; type: cell-based
Sequence of Protein smoothened (Mus musculus, UniProt P56726) (P56726 whole entry): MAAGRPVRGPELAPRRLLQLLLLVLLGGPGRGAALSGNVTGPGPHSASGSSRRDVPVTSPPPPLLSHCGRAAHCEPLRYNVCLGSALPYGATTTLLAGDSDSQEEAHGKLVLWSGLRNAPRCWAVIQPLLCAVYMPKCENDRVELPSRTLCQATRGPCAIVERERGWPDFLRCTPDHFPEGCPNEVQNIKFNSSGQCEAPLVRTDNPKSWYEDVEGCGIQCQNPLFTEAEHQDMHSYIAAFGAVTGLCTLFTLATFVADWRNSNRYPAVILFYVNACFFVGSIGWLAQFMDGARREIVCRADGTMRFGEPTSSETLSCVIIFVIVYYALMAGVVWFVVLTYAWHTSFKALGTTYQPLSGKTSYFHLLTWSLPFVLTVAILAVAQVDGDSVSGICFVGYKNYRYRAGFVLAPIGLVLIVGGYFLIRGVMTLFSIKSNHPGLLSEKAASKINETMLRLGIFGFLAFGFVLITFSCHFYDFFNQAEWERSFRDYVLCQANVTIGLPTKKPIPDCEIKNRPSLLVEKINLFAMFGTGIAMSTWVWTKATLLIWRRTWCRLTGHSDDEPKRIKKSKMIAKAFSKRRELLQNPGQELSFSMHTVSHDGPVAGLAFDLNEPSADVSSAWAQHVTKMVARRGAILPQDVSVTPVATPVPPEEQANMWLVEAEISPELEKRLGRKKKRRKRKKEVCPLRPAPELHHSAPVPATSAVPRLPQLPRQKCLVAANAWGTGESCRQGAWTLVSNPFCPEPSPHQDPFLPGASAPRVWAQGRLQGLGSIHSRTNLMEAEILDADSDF

[4] = molecular target: T1, Microsomal triglyceride transfer protein large subunit (Homo sapiens, UniProt P55157); experiment: Inhibition of MTP in human HepG2 cells assessed as apolipoprotein B production by ELISA; type: cell-based
T1 sequence (P55157 whole entry): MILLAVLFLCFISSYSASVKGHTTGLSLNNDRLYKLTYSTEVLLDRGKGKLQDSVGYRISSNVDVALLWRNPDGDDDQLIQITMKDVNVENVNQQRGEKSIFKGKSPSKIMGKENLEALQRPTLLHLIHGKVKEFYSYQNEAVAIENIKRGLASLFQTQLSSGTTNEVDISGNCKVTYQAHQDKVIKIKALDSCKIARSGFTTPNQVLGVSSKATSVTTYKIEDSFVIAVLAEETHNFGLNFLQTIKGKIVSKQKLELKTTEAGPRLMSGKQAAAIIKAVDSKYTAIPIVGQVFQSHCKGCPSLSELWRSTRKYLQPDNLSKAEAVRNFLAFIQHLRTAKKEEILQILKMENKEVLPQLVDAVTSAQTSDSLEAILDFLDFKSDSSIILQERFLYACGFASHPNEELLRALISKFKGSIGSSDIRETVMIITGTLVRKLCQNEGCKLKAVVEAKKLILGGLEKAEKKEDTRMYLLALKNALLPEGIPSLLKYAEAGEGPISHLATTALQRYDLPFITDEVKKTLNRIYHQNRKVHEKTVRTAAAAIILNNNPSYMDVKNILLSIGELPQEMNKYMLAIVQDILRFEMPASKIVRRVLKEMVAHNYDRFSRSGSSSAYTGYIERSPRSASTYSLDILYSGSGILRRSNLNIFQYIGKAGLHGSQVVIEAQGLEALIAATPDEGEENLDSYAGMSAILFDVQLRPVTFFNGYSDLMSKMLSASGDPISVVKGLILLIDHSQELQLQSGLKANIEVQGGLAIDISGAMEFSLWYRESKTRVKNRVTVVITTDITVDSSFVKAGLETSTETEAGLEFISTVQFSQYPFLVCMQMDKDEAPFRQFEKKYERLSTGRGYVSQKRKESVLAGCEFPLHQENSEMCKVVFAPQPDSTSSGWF

Cc1cccc(C(=O)Nc2ccc3c(c2)C[C@@H](Nc2ccccc2)C3)c1-c1ccc(C(F)(F)F)cc1
pIC50 [1]: 7.39 | pIC50 (Protein smoothened [2]): 6.89 | pIC50 (Protein smoothened [3]): 7.09

Cc1cccc(C(=O)Nc2ccc3c(c2)C[C@@H](NC(c2ccccc2)C(F)(F)F)C3)c1-c1ccc(C(F)(F)F)cc1 (some centres not stated)
pIC50 [1]: 7.48 | pIC50 (Protein smoothened [2]): 7.26 | pIC50 (Protein smoothened [3]): 7.24

CC(=O)Nc1ccc(CN[C@H]2Cc3ccc(NC(=O)c4cccc(C)c4-c4ccc(C(F)(F)F)cc4)cc3C2)cc1
pIC50 [1]: 6.35 | pIC50 (Protein smoothened [2]): 6.47 | pIC50 (Protein smoothened [3]): 6.44

COC(=O)N[C@H]1Cc2ccc(NC(=O)c3cccc(C)c3-c3ccc(C(F)(F)F)cc3)cc2C1
pIC50 [1]: 5.67 | pIC50 (Protein smoothened [2]): 5.12 | pIC50 (Protein smoothened [3]): 5.29 | pIC50 [4]: 8.37

Cc1cccc(C(=O)Nc2ccc3c(c2)C[C@@H](NCc2nccs2)C3)c1-c1ccc(C(F)(F)F)cc1
pIC50 [1]: 7.60 | pIC50 (Protein smoothened [2]): 7.52 | pIC50 (Protein smoothened [3]): 8.00

Cc1ccc(CN[C@H]2Cc3ccc(NC(=O)c4cccc(C)c4-c4ccc(C(F)(F)F)cc4)cc3C2)o1
pIC50 [1]: 8.10 | pIC50 (Protein smoothened [2]): 8.00 | pIC50 (Protein smoothened [3]): 8.22

COc1ccc(-c2ccc(C(F)(F)F)cc2)c(C(=O)Nc2ccc3c(c2)CC(NCc2ccccn2)C3)c1 (racemic)
pIC50 [1]: < 5.30 | pIC50 (Protein smoothened [3]): < 5.30

CC1=C2C[C@H]3[C@@H](CC=C4C[C@@H](O)CC[C@@]43C)[C@@H]2CC[C@]12O[C@@H]1C[C@H](C)CN[C@H]1[C@H]2C [CYCLOPAMINE]
pIC50 [1]: 7.34

Cc1cccc(C(=O)Nc2ccc3c(c2)C[C@@H](NCc2ccccn2)C3)c1-c1ccc(C(F)(F)F)cc1
pIC50 [1]: 7.00 | pIC50 (Protein smoothened [2]): 6.92 | pIC50 (Protein smoothened [3]): 7.24 | pIC50 [4]: 5.63

O=C(Nc1ccc2c(c1)CC(NCc1ccccn1)C2)c1ccccc1-c1ccccc1 (racemic)
pIC50 [1]: 6.00 | pIC50 (Protein smoothened [2]): 5.94 | pIC50 (Protein smoothened [3]): 5.85

COC(=O)NC1Cc2ccc(NC(=O)c3cccc(C)c3-c3ccc(C(F)(F)F)cc3)cc2C1 (racemic)
pIC50 [1]: 5.88 | pIC50 (Protein smoothened [2]): 5.57 | pIC50 (Protein smoothened [3]): 5.53

Cc1cccc(C(=O)Nc2ccc3c(c2)C[C@@H](NCc2cccs2)C3)c1-c1ccc(C(F)(F)F)cc1
pIC50 [1]: 8.00 | pIC50 (Protein smoothened [2]): 8.15 | pIC50 (Protein smoothened [3]): 8.05

O=C(Nc1ccc2c(c1)CC(NCc1ccccn1)C2)c1ccccc1-c1ccc(Cl)cc1 (racemic)
pIC50 [1]: 5.31 | pIC50 (Protein smoothened [3]): 5.57

COC(=O)N[C@@H]1Cc2ccc(NC(=O)c3cccc(C)c3-c3ccc(C(F)(F)F)cc3)cc2C1
pIC50 [1]: 5.92 | pIC50 (Protein smoothened [2]): 5.47 | pIC50 (Protein smoothened [3]): 5.61 | pIC50 [4]: 9.05

COc1ccc(CN[C@H]2Cc3ccc(NC(=O)c4cccc(C)c4-c4ccc(C(F)(F)F)cc4)cc3C2)cc1
pIC50 [1]: 6.44 | pIC50 (Protein smoothened [2]): 6.92 | pIC50 (Protein smoothened [3]): 7.03

Cc1cccc(C(=O)Nc2ccc3c(c2)C[C@H](NCc2ccccn2)C3)c1-c1ccc(C(F)(F)F)cc1
pIC50 [1]: 5.31 | pIC50 (Protein smoothened [3]): 5.06 | pIC50 [4]: 8.46

Cc1cccc(C(=O)Nc2ccc3c(c2)C[C@@H](NCc2ccncc2)C3)c1-c1ccc(C(F)(F)F)cc1
pIC50 [1]: 6.82 | pIC50 (Protein smoothened [2]): 6.62 | pIC50 (Protein smoothened [3]): 6.72

Cc1cccc(C(=O)Nc2ccc3c(c2)C[C@@H](NC(C)c2ccccc2)C3)c1-c1ccc(C(F)(F)F)cc1 (some centres not stated)
pIC50 [1]: 7.06 | pIC50 (Protein smoothened [2]): 7.49 | pIC50 (Protein smoothened [3]): 7.54

Cc1cccc(C(=O)Nc2ccc3c(c2)CC(NS(=O)(=O)c2ccccc2)C3)c1-c1ccc(C(F)(F)F)cc1 (racemic)
pIC50 [1]: 5.90

Cc1cccc(C(=O)Nc2ccc3c(c2)C[C@@H](NCc2cnc4ccccc4c2)C3)c1-c1ccc(C(F)(F)F)cc1
pIC50 [1]: 5.89 | pIC50 (Protein smoothened [2]): 6.68 | pIC50 (Protein smoothened [3]): 6.46

Cc1cccc(C(=O)Nc2ccc3c(c2)CC(NC(=O)c2ccccc2)C3)c1-c1ccc(C(F)(F)F)cc1 (racemic)
pIC50 [1]: 6.22

Cc1ccc(-c2ccc(C(F)(F)F)cc2)c(C(=O)Nc2ccc3c(c2)CC(NCc2ccccn2)C3)c1 (racemic)
pIC50 [1]: 5.17 | pIC50 (Protein smoothened [3]): 5.06

O=C(Nc1ccc2c(c1)CC(NCc1ccccn1)C2)c1ccccc1-c1ccc(C(F)(F)F)cc1 (racemic)
pIC50 [1]: 6.70 | pIC50 (Protein smoothened [2]): 6.10 | pIC50 (Protein smoothened [3]): 6.31

Cc1cccc(C(=O)Nc2ccc3c(c2)CC(NCc2ccccc2)C3)c1-c1ccc(C(F)(F)F)cc1 (racemic)
pIC50 [1]: 7.03

Cc1cccc(C(=O)Nc2ccc3c(c2)C[C@H](NCc2nccs2)C3)c1-c1ccc(C(F)(F)F)cc1
pIC50 [1]: 5.37 | pIC50 (Protein smoothened [2]): 6.11 | pIC50 (Protein smoothened [3]): 5.92

Cc1cccc(C(=O)Nc2ccc3c(c2)C[C@@H](NCc2scnc2C)C3)c1-c1ccc(C(F)(F)F)cc1
pIC50 [1]: 6.80 | pIC50 (Protein smoothened [2]): 6.77 | pIC50 (Protein smoothened [3]): 6.92

Cc1cccc(C(=O)Nc2ccc3c(c2)C[C@@H](NCC2CCOC2)C3)c1-c1ccc(C(F)(F)F)cc1 (some centres not stated)
pIC50 [1]: 5.43 | pIC50 (Protein smoothened [3]): 4.78

Cc1cccc(C(=O)Nc2ccc3c(c2)C[C@@H](NCc2ccccc2)C3)c1-c1ccc(C(F)(F)F)cc1
pIC50 [1]: 7.68 | pIC50 (Protein smoothened [2]): 7.85 | pIC50 (Protein smoothened [3]): 8.10

Cc1cccc(C(=O)Nc2ccc3c(c2)C[C@@H](NCc2ccco2)C3)c1-c1ccc(C(F)(F)F)cc1
pIC50 [1]: 7.64 | pIC50 (Protein smoothened [3]): 7.85

Cc1csc(CN[C@H]2Cc3ccc(NC(=O)c4cccc(C)c4-c4ccc(C(F)(F)F)cc4)cc3C2)n1
pIC50 [1]: 7.77 | pIC50 (Protein smoothened [2]): 8.15 | pIC50 (Protein smoothened [3]): 8.40

Cc1cccc(C(=O)Nc2ccc3c(c2)CC(NCc2ccccn2)C3)c1-c1ccc(C(F)(F)F)cc1 (racemic)
pIC50 [1]: 7.00 | pIC50 (Protein smoothened [3]): 6.96
